This is an account of results in article PMC10489073 (Molecules, 2023).

Data set [1] relates to cleaved caspase-3 in MM1.S cells. Briefly: Western blot analysis, caspase-3 cleavage. The note with it: MM1.S, 1, 2 and 4 µM, 24 h. Format: cell-based. As to the method:
MM1.S cells were seeded in 6-well plates with a density of 2.5 × 10^6 cells/well. Then, the cells were cultured with 1, 2, and 4 μM BC-05 and 10 nM ixazomib, respectively. After incubation for 24 h, the cells were collected, and total proteins were extracted via RIPA containing a 2% protease inhibitor cocktail. Cell lysates were centrifugated at 4 °C, 12,000 rpm for 15 min, and the supernatants were collected and quantified with BCA assay. After being boiled at 100 °C for 10 min in a NuPAGE lithium dodecyl sulfate (LDS) sample buffer (5X), equivalent samples were separated by 12% sodium dodecyl-sulfate polyacrylamide gel electrophoresis at 120 V, transferred to immune-blot poly(vinylidene fluoride) (PVDF) membranes (Merck Millipore, Burlington, MA, USA) at 4 °C and then blocked by 5% non-fat milk in TBST for an hour. The membranes were incubated overnight at 4 °C with certain primary antibodies, which were deliquates by an antibody dilution buffer (Boster Bio, Pleasanton, CA, USA) and then washed with TBST. After incubating with a horseradish (HRP)-conjugated secondary antibody for 1 h at room temperature, the membranes were washed five times with TBST for 5 min. The images were visualized on the Tanon-5200 Chemiluminescent Imaging System via luminol reaction. […]
A general note: A western blot detects proteins with antibodies after separation by electrophoresis.

Data set [2] in a line: Subacute toxicity experiment. Format: in vivo. To be noted: SD rats, male and female, 0.006, 0.02 and 0.06 mmol/kg p.o. twice a week, 30 days. As to the method:
The animal experiments were conducted under the guidelines of the “Regulations for the Administration of Affairs Concerning Experimental Animals” (revised 2017, State Council No. 676). For the subacute toxicity study, 12 male and 12 female SD rats (purchased from the Weifang Medical University) were randomly divided into three treatment groups and a control group (n = 6, half male and half female). The rats in treatment groups were given 0.06 mmol/kg (p.o. BIW), 0.02 mmol/kg (p.o. BIW), and 0.006 mmol/kg (p.o. BIW) BC-05, respectively, for 30 days, while the rats in control groups were treated with the same volume of a vehicle solution. The rats were weighed each day and dissected at day 30. Behavioral abnormalities such as lethargy, ruffled fur, anorexia, clonic convulsion, and diarrhea were recorded throughout the entire experimental period.

Another data set can be described thus: In vivo pharmacokinetics. The note with it: SD rats; for AUC(0-inf): SD. As to the method:
The animal experiments were conducted under the guidelines of the “Regulations for the Administration of Affairs Concerning Experimental Animals” (revised 2017, State Council No. 676). The pharmacokinetic properties (PK) were performed in SD rats, and the procedures conducted were in accordance with institutional guidelines. Male SD rats (weighting 200 ± 20 g) fasted for 12 h and were divided into two groups, three in each group: oral administration of BC-05 (10 mg/kg) and intravenous administration of BC-05 (10 mg/kg). A total of 300 μL of a blood sample was collected through retro-orbital plexus from the rats in each group at 0 h, 0.033 h, 0.167 h, 0.5 h, 0.75 h, l h, 2 h, 4 h, 6 h, 8 h, 10 h, and 24 h. Plasma samples were placed in microcentrifuge tubes containing Li-heparin to avoid coagulant, separated by centrifugation at 12,000 rpm for 10 min, and stored at −80 °C until sample analysis. After the precipitation of proteins, samples were centrifuged at 15,000 rpm for 10 min, and the supernatant was reserved for HPLC-MS/MS analysis.

The subject of data set [3] is H22 pulmonary metastasis tumor model. Briefly: In vivo H22 pulmonary metastasis model. Further details: species or system Kunming mice. The note with it: p.o., BIW, 2 weeks, vehicle group 71.5. The procedure:
The animal experiments were conducted under the guidelines of the “Regulations for the Administration of Affairs Concerning Experimental Animals” (revised 2017, State Council No. 676). H22 cells (3 × 10^6 cells/100 μL per mouse) were intravenously (i.v.) inoculated via the tail vein of Kunming mice aged 6 weeks on day 0. To ensure the growth of pulmonary metastasis before the drug treatment, the tumor was allowed to develop for 7 days. On day 8, the randomly grouped mice were treated with ixazomib (0.008 mmol/kg, p.o., BIW) or BC-05 (0.006, 0.008, and 0.01 mmol/kg, p.o., BIW) for consecutive 2 weeks. On day […], the mice were weighed and sacrificed, and the lungs were removed and weighed. After being fixed in the Bouin stationary solution for one day, the lung metastasized nodes of each mouse were numbered.

A further data set concerns the target T1, Human CD13 (Homo sapiens, UniProt P15144).
T1 construct: purchased R&D systems
Briefly: CD13 inhibition assay (recombinant human aminopeptidase, L-leucine-p-nitroanilide). Format: biochemical. The note with it: mean ± SD, n ≥ 3; read-out: IC50 toward Human CD13. The procedure:
L-leucine-p-nitroanilide can be degraded by recombinant human aminopeptidase (R&D systems) or procine aminopeptidase (Sigma Chemical Co., St. Louis, MO, USA) and produce light absorption at 405 nm. The CD13 inhibitory activity of synthetic compounds was identified according to the degree of degradation of L-leucine-p-nitroanilide. L-leucine-p-nitroanilide was dissolved in DMSO and mixed with tested compounds in a transparent 96-well plate; then, aminopeptidase was added using phosphate solution (pH 7.2) as the assay buffer. After incubation at 37 °C for 30 min, the absorption was detected under a 405 nm wavelength via Tecan Spark multimode microplate.

Data set [4] can be described thus: Acute toxicity experiment (single oral dose). To be noted: for Survival Animals: 7 days, n = 10. Format: in vivo. An excerpt: The mouse mortality was monitored daily and recorded up to 7 days after treatment.
Setting [5] is: male, rat, plasma, iv, i.v. at 10 mg/kg, n = 3.
The mark [6] stands for this setting: male, rat, plasma, oral at 10 mg/kg, n = 3.

T1 sequence (P15144 whole entry): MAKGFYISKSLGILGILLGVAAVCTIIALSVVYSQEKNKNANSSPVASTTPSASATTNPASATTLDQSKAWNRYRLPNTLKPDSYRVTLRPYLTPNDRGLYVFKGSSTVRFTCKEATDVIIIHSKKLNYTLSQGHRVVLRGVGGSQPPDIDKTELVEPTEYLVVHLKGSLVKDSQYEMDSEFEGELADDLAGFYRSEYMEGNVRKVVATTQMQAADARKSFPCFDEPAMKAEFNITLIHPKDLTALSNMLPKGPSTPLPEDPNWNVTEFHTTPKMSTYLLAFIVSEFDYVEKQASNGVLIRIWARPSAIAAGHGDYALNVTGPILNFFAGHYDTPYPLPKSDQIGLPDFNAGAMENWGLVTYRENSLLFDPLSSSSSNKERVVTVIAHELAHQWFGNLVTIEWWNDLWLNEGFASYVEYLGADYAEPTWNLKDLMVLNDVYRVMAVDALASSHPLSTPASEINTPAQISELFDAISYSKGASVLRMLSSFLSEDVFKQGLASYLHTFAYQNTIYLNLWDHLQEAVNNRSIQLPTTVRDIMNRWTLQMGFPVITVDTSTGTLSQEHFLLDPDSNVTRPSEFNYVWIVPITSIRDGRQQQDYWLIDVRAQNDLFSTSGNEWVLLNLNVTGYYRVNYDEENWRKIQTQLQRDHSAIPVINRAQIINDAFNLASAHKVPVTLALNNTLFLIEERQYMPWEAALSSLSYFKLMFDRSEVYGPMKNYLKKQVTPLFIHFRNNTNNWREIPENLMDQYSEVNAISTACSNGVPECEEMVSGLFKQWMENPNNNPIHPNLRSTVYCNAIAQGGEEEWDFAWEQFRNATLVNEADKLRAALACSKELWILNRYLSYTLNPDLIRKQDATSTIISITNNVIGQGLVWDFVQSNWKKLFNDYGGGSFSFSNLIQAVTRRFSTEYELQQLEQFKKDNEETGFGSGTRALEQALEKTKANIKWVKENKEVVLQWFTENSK

For orientation: AUC(0-inf) means total exposure, with the tail of the curve extrapolated. Broadly, the Cmax is the highest concentration seen after dosing. In general, Tmax refers to the time from dosing to the highest level. The clearance is the volume of plasma or blood freed of the substance per unit of time. A high value points to a high capacity for elimination. What is called half-life is the time needed for the level to fall by half in the phase considered. Read a low half-life as rapid decline. Broadly, the bioavailability is the share of a dose that reaches the circulation, judged against a reference dose that is usually intravenous. One may read the IC50 as the concentration at which inhibition is half-maximal. A word on the LD50: it is the dose at which mortality reaches 50%. Turning to `CC(C)C[C@H](NC(=O)[C@@H](O)[C@H](N)Cc1ccccc1)B1OC(=O)C(CC(=O)O)(CC(=O)O)O1` [BC-05, 2,2′-(2-((R)-1-((2S,3R)-3-amino-2-hydroxy-4-phenylbutanamido)-3-methylbutyl)-5-oxo-1,3,2-dioxaborolane-4,4-diyl)diacetic acid], the “Caspase-3 cleavage (Western blot)” value in data set [1] is “obvious”. Besides, the body weight loss entry in data set [2] is “did not exhibit any significant body weight loss”. For the same compound, the CL in “In vivo pharmacokinetics” (oral at 10 mg/kg, n = 3) came out at 128 ± 11 mL/min/kg. In addition, the “AUC0–∞” value in the data set “In vivo pharmacokinetics” (oral at 10 mg/kg, n = 3, 10 mg/kg) was 1307.71 ± 116.74 μg/L∗h. The AUC(0-inf) came to 5150 ± 482 ng·h/mL in “In vivo pharmacokinetics” (male, rat, plasma, iv, 10 mg/kg, i.v. at 10 mg/kg, n = 3) and 1310 ng·h/mL in “In vivo pharmacokinetics” (male, rat, plasma, po, 10 mg/kg, oral at 10 mg/kg, n = 3). Moreover, the Cmax in “In vivo pharmacokinetics” (setting [5]) was 10500 ng/mL; in “In vivo pharmacokinetics” (setting [6]), 373 ± 49.6 ng/mL. For the same compound, the Tmax in “In vivo pharmacokinetics” (setting [5]) stood at 0.03 h; in “In vivo pharmacokinetics” (setting [6]) it was 2 h. The clearance in the data set “In vivo pharmacokinetics” (setting [5]) is 32.5 mL/min/kg. Also, the half-life in “In vivo pharmacokinetics” (setting [5]) was 1.72 ± 0.67 h; in the data set “In vivo pharmacokinetics” (setting [6]) it was 2.35 ± 1.23 h. The bioavailability in “In vivo pharmacokinetics” (male, rat, plasma, oral at 10 mg/kg vs i.v. 10 mg/kg, read-out: F (oral bioavailability)) worked out at 24.9 ± 4.32%. In addition, the “number of H22 pulmonary nodes” value in data set [3] (0.006 mmol/kg) was 17.3; in data set [3] (0.008 mmol/kg) it was 15.2; in data set [3] (0.01 mmol/kg) it was 12.7. For the same compound, the IC50 at Human CD13 turned out to be 130 ± 10 nM. Besides, the 50% lethal dose (LD50) at 7 days in data set [4] (both sexes, Kunming, mouse, in vivo, single oral dose, healthy mice) worked out at 400 µmol/kg. Besides, the “Survival Animals” value in data set [4] (single oral 0.27 mmol/kg) is recorded as 10/10; in data set [4] (single oral 0.36 mmol/kg) it was 6/10; in data set [4] (single oral 0.49 mmol/kg) it was 4/10; in data set [4] (single oral 0.65 mmol/kg), 1/10; in data set [4] (single oral 0.86 mmol/kg), 0/10.
